Measurements published in publication PMC7450057, “Enhancing intracellular accumulation and target engagement of PROTACs with reversible covalent chemistry” (Nature Communications, 2020).
“And” between values parts separate entries of the source, which are not always exact repeats. Identical values can stand only once.

Key:
BTK = BTK (Homo sapiens, UniProt Q06187); assay: In vitro BTK kinase assay (PhosphoSens); format: biochemical; design: purchased SignalChem B10-10H-10
Method: BTK kinase activity inhibition IC50 was measured by PhosphoSens® Kinase Assay Kit (Assay Quant Technologies Inc., Cat.# CSKS-AQT0101K). […] Active recombinant BTK was purchased from SignalChem (Cat.# B10-10H-10). All the drugs (3 warhead control and 4 PROTACs) were dissolved in DMSO (10 mM). […] To calculate the IC50, subtract the background fluorescence determined with the “no kinase” control for each time point from the total signal to obtain corrected Relative Fluorescence Units (RFU) values. Plot the corrected RFU vs. Time for each inhibitor concentration and determine the initial reaction rates (slope of the linear portion) for each progress curve for each inhibitor concentration. Then plot velocity (RFU corrected/minute) vs [inhibitor] and determine the IC50 using a 4-parameter logistic fit.

Mino = assay: IC50 in MCL cell lines (Supplementary Table 2), Mino; settings: for Cell Viability (%): Mino cells, replicate wells
Rec-1 = assay: IC50 in MCL cell lines (Supplementary Table 2), Rec-1; settings: for Cell Viability (%): Rec-1 cells, replicate wells
Jeko-1 = assay: IC50 in MCL cell lines (Supplementary Table 2), Jeko-1; settings: for Cell Viability (%): Jeko-1 cells, replicate wells

Chain of BTK (Q06187 whole entry): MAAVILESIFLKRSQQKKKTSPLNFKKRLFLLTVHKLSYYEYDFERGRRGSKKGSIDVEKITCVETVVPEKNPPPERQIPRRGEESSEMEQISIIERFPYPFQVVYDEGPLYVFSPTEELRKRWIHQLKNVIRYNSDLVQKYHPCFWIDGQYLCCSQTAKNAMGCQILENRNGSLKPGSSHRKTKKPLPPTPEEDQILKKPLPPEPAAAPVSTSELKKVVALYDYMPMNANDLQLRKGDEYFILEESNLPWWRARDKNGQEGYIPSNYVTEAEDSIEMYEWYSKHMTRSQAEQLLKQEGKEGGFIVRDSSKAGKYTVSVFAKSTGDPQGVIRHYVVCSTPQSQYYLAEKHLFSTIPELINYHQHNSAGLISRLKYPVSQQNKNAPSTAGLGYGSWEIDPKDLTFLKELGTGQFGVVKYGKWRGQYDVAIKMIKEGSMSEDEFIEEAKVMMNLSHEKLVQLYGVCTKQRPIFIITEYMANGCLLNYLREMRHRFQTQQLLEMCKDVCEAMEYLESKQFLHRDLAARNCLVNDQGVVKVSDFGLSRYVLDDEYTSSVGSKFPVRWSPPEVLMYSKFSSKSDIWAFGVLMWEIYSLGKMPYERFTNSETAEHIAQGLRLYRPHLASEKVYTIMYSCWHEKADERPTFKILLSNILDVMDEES

IC50 (BTK; AssayQuant BTK assay kit, 2.5 nM BTK, 1 mM ATP, duplicates, read-out: BTK inhibition IC50): 6.8 nM
activity at 2.56 pM (BTK; Supplementary Figure 5, drug concentration 2.56 pM, replicates, read-out: Inhibition(%)): 108%
activity at 12.8 pM (BTK; Supplementary Figure 5, drug concentration 12.8 pM, replicates, read-out: Inhibition(%)): 101%
activity at 64 pM (BTK; Supplementary Figure 5, drug concentration 64 pM, replicates, read-out: Inhibition(%)): 109%
activity at 0.00032 µM (BTK; Supplementary Figure 5, drug concentration 320 pM, replicates, read-out: Inhibition(%)): 106%
activity at 0.0016 µM (BTK; Supplementary Figure 5, drug concentration 1600 pM, replicates, read-out: Inhibition(%)): 88.3%
activity at 0.008 µM (BTK; Supplementary Figure 5, drug concentration 8000 pM, replicates, read-out: Inhibition(%)): 48.8%
activity at 0.04 µM (BTK; Supplementary Figure 5, drug concentration 40000 pM, replicates, read-out: Inhibition(%)): 10.5%
activity at 0.2 µM (BTK; Supplementary Figure 5, drug concentration 200000 pM, replicates, read-out: Inhibition(%)): 3.98%
activity at 1 µM (BTK; Supplementary Figure 5, drug concentration 1000000 pM, replicates, read-out: Inhibition(%)): 1.27%
IC50 (Mino; Mino, triplicates): 3300 nM
IC50 (Rec-1; Rec-1, triplicates): > 5000 nM
IC50 (Jeko-1; Jeko-1, triplicates): 600 nM
SMILES: CN1C(=O)CCC(N2C(=O)c3cccc(NCC(=O)NCCCN(C)C(C)(C)C=C(C#N)C(=O)N4CCCC(n5nc(-c6ccc(Oc7ccccc7)cc6)c6c(N)ncnc65)C4)c3C2=O)C1=O (stereo not shown) [RC-1-Me]
Cell Viability (%) (Mino; 1.25E-06 M): 62.8357% and 58.5114% and 61.2528%
Cell Viability (%) (Mino; 1.56E-07 M): 87.7372% and 87.5805% and 85.7829%
Cell Viability (%) (Mino; 2.50E-06 M): 55.4376% and 54.2347% and 53.6197%
Cell Viability (%) (Mino; 3.13E-07 M): 79.9575% and 76.1954% and 74.7404%
Cell Viability (%) (Mino; 5.00E-06 M): 43.6522% and 45.138% and 46.9951%
Cell Viability (%) (Mino; 6.25E-07 M): 66.0951% and 69.0683% and 66.9419%
Cell Viability (%) (Mino; 7.81E-08 M): 88.6147% and 85.2411% and 92.7295%
Cell Viability (%) (Rec-1; 1.25E-06 M): 88.9713% and 84.187% and 87.0708%
Cell Viability (%) (Rec-1; 1.56E-07 M): 102.885% and 100.999% and 103.498%
Cell Viability (%) (Rec-1; 2.50E-06 M): 85.2061% and 81.3451% and 80.2365%
Cell Viability (%) (Rec-1; 3.13E-07 M): 100.04% and 97.7301% and 97.0129%
Cell Viability (%) (Rec-1; 5.00E-06 M): 70.5812% and 67.1387% and 67.0221%
Cell Viability (%) (Rec-1; 6.25E-07 M): 91.8342% and 92.6769% and 91.2574%
Cell Viability (%) (Rec-1; 7.81E-08 M): 100.946% and 100.662% and 102.733%
Cell Viability (%) (Jeko-1; 1.25E-06 M): 36.268% and 32.7063% and 31.5519%
Cell Viability (%) (Jeko-1; 1.56E-07 M): 68.2022% and 62.2702% and 73.2784%
Cell Viability (%) (Jeko-1; 2.50E-06 M): 5.54% and 14.7844% and 6.721%
Cell Viability (%) (Jeko-1; 3.13E-07 M): 71.0782% and 71.3298% and 71.3347%
Cell Viability (%) (Jeko-1; 5.00E-06 M): 4.5335% and 3.7442% and 3.927%
Cell Viability (%) (Jeko-1; 6.25E-07 M): 49.1754% and 57.0313% and 33.3624%
Cell Viability (%) (Jeko-1; 7.81E-08 M): 77.062% and 93.1685% and 69.7463%
